# In PubChem BioAssay AID1963980 (Molecular Pharmacology Branch, DTP, NCI, 2024):
# Values joined by “and” are separate entries in the source; they are usually repeats but may differ in a detail not shown here. Identical values can stand only once.
# System: 475296-252-R-J1-PDC spheroid viability
# Assay: Anticancer human tumor 475296-252-R-J1-PDC patient-derived rectal carcinoma cell line growth inhibition [PI3K]
# Conditions: spheroids with HUVEC and MSC; for viability, T/C: stronger effect = lower value
# Excerpt: Combinatorial screen of targeted agents with the PI3K inhibitors inavolisib, alpelisib, duvelisib, and copanlisib in multi-cell type tumor spheroids
# A high-throughput screen of multi-cell type tumor spheroids was designed to identify active combinations of targeted small molecules and PI3K pathway inhibitors. Complex spheroids include a stromal component modeled by human endothelial cells (HUVEC) and fibroblasts modeled by human mesenchymal stem cells (MSCs). The concentration ranges selected for each drug and investigational agent were based upon clinically achievable concentrations if the clinical Cmax of the agent was known.
# Compounds. The drugs and investigational agents: inavolisib (NSC800729), alpelisib (NSC765974), duvelisib (NSC772469), copanlisib (NSC816437), ipatasertib (NSC767898), afuresertib (NSC778305), talazoparib (NSC767125), sapanisertib (NSC764658), selumetinib (NSC741078), tovorafenib (DAY101, NSC766906), vemurafenib (NSC761431), ravoxertinib (NSC781343), sotorasib (NSC818433), MRTX1133 (NSC 836407), abemaciclib (NSC 768073), palbociclib (NSC758247), venetoclax (NSC 766270), SY5609 (NSC837396), enzalutamide (NSC755605), and darolutamide (NSC825331), were obtained from the National Cancer Institute (NCI) Developmental Therapeutics Program Chemical Repository. The FDA-approved anticancer drug set is available from the NCI Developmental Therapeutics Program. […] The stock solutions were prepared in dimethyl sulfoxide (DMSO, Sigma-Aldrich, St. Louis, MO, cat. D2650) at 800-fold the tested concentration and stored at -70 degrees C prior to their use. All drugs and investigational agents were tested over a range starting from a high concentration at or near the clinical Cmax and decreasing in half-log increments. If the clinical Cmax for an agent had not been determined, the highest concentration tested was 10 microM.
# Cell Culture. All cells were maintained in an incubator at 37 degrees C and 5% CO2 with 95% humidity. The PDC lines were cultured according to standard operating procedures established by the NCI PDMR (https://pdmr.cancer.gov/sops/default.htm). All PDCs were thawed and cultured in Matrigel-coated flasks prepared with a working solution of 1X Ham's F-12 nutrient mix, without supplementation (Invitrogen, Waltham, MA, cat. 11765054), 100 U/mL penicillin-streptomycin (Invitrogen, cat. 15140122), and 2.5% Matrigel (Corning Inc., Corning, NY, cat. 354248) for the first three passages. The 354836-022-R-J1-PDC, 475296-252-R-J1-PDC, and 997726-040-R-J2-PDC lines were cultured in 6A media, which includes advanced DMEM/F-12 (Thermo Fisher Scientific, cat. 12634028), 10 mM HEPES (Thermo Fisher Scientific, cat. 15630080), 1X GlutaMAX supplement (Thermo Fisher Scientific, cat. 35050061), 0.1 mg/mL primocin (InvivoGen, San Diego, CA, cat. ant-pm-2), 10% defined fetal bovine serum, heat inactivated (HyClone Laboratories Inc., Logan, UT, cat. SH30070.03HI), 50% L-WRN conditioned media (ATCC, cat. CRL-3276), 1.25 mM N-Acetyl-L-cysteine (Sigma-Aldrich, cat. A9165), 10 mM nicotinamide (Sigma-Aldrich, cat. N0636), 1X B-27 supplement (Thermo Fisher Scientific, cat. 17504044), 1X N-2 supplement (Thermo Fisher Scientific, cat. 17502048), and 10 microM Y-27632 dihydrochloride (Tocris Bioscience, Bristol, United Kingdom, cat. 1254). The 624824-186-R-J2-PDC line was cultured in 6C/Colon 1B media, which includes all 6A media components plus 50 ng/mL human EGF recombinant protein (Thermo Fisher Scientific, cat. PHG0311). […]
# 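Note: spheroids exposed to agents for seven days before readout.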
IC50 (curve of compound),"IC50 (compound alone, run of 06/13/2023) [µM]","IC50 (compound alone, run of 06/12/2023) [µM]",SMILES,"viability, T/C (compound 0.00316 µM)","viability, T/C (compound 0.01 µM)","viability, T/C (compound 0.0316 µM)","viability, T/C (compound 0.1 µM)","viability, T/C (compound 0.316 µM)","viability, T/C (compound 1 µM)","viability, T/C (compound 3.16 µM)","viability, T/C (compound 10 µM)","viability, T/C (compound 0.00949 µM)","viability, T/C (compound 0.03 µM)","viability, T/C (compound 0.0949 µM)","viability, T/C (compound 0.3 µM)","viability, T/C (compound 3 µM)","viability, T/C (compound 0.000316 µM)","viability, T/C (compound 0.001 µM)"
> 3 µM and 2.76 µM,,,Cn1cnc2c(F)c(Nc3ccc(Br)cc3Cl)c(C(=O)NOCCO)cc21,,,,,,,,,97.5% [middle of 4 runs],91.9% [middle of 4 runs],90.2% [middle of 4 runs],80.8% [middle of 4 runs],61.2% [middle of 4 runs],,
> 10 µM,,,Cn1ncc(Cl)c1-c1cc(C(=O)NC(CN)Cc2cccc(F)c2)sc1Cl (centres undefined),,,85.6% [middle of 4 runs],88.6% [middle of 4 runs],68% [middle of 4 runs],65.5% [middle of 4 runs],75.9% [middle of 4 runs],70.7% [middle of 4 runs],,,,,,,
> 10 µM,,,Cn1nccc1Nc1nccc(-c2ccn(C(CO)c3ccc(Cl)c(F)c3)c(=O)c2)n1 (centres undefined),,,104% [middle of 4 runs],96.6% [middle of 4 runs],102% [middle of 4 runs],89.5% [middle of 4 runs],,82.3% [middle of 4 runs],,,,,,,
> 0.1 µM,,,Cn1ncnc1[C@H]1c2n[nH]c(=O)c3cc(F)cc(c23)N[C@@H]1c1ccc(F)cc1,96.1% [middle of 4 runs],93.1% [middle of 4 runs],104% [middle of 4 runs],90.4% [middle of 4 runs],,,,,,,,,,114% and 102% (2×) and 106%,104% [middle of 4 runs]

# More lines, now with the values behind:
SMILES,IC50 (curve of compound),"IC50 (compound alone, run of 06/13/2023) [µM]","IC50 (compound alone, run of 06/12/2023) [µM]","viability, T/C (compound 0.00316 µM)","viability, T/C (compound 0.01 µM)","viability, T/C (compound 0.0316 µM)","viability, T/C (compound 0.1 µM)","viability, T/C (compound 0.316 µM)","viability, T/C (compound 1 µM)","viability, T/C (compound 3.16 µM)","viability, T/C (compound 10 µM)","viability, T/C (compound 0.00949 µM)","viability, T/C (compound 0.03 µM)","viability, T/C (compound 0.0949 µM)","viability, T/C (compound 0.3 µM)","viability, T/C (compound 3 µM)","viability, T/C (compound 0.000316 µM)","viability, T/C (compound 0.001 µM)"
CCN1CCN(Cc2ccc(Nc3ncc(F)c(-c4cc(F)c5nc(C)n(C(C)C)c5c4)n3)nc2)CC1,> 1 µM,,,101% [middle of 4 runs],100% [middle of 4 runs],95.7% [middle of 4 runs],100% [middle of 4 runs],101% [middle of 4 runs],92.4% [middle of 4 runs],,,,,,,,,
COc1c(OCCCN2CCOCC2)ccc2c3n(c(=NC(=O)c4cnc(N)nc4)nc12)CCN3,,> 1,,103% [middle of 8 runs],97.3% [middle of 8 runs],90.7% [middle of 8 runs],87% [middle of 8 runs],71.5% [middle of 8 runs],68% [middle of 8 runs],,,,,,,,,
C[C@@H](NC(=O)c1ncnc(N)c1Cl)c1ncc(C(=O)Nc2cc(C(F)(F)F)c(Cl)cn2)s1,> 10 µM,,,,,89.7% [middle of 4 runs],99.8% [middle of 4 runs],95.5% [middle of 4 runs],101% [middle of 4 runs],103% [middle of 4 runs],87.5% [middle of 4 runs],,,,,,,
Cc1nc(NC(=O)N2CCCC2C(N)=O)sc1-c1ccnc(C(C)(C)C(F)(F)F)c1 (centres undefined),,,> 10,,,98.6% [middle of 8 runs],97.1% [middle of 8 runs],97% [middle of 8 runs],99.7% [middle of 8 runs],90.8% [middle of 8 runs],81.6% [middle of 8 runs],,,,,,,
